According to patent US10426755B2, “Methods for inhibiting cancer cells” (Chang Gung Memorial Hospital, Chiayi, priority 2015, dated 2019):
Entries after “also recorded” stand apart in the source; their conditions may differ.

Columns and labels:
Assay type in all cases: cell-based
[1] = system: CCL2 in RAW 264.7 cells/DU145 co-culture; test: CCL2 ELISA, RAW 264.7/DU145 co-culture; settings: DT-treated macrophage/DU145 co-culture medium; 5 or 10 μM DT, 24 hours; FIG. 15 (c)
Procedure: As illustrated in Example 10, the production of CCL2 was inhibited by DT in both prostate cancer cells and macrophage, the effect of DT on monocyte/cancer cell co-culture and macrophage/cancer cell co-culture was examined using the invasion assay described in Example 9. • (a) THP1 monocytes, Raw264.7 macrophage, monocyte/prostate cancer co-culture and macrophage/prostate cancer co-culture were treated with a vehicle (DMSO), 5 or 10 μM DT for 24 hours, the cultured medium was collected and placed into the lower chamber of a transwell plate. • (b) Prostate cancer cells (PC3, DU145 and 22RV1) were placed in the cell invasion assay). The level of CCL2 in the invasion assay was measured by ELIZA method.

CCL2 in THP1 monocytes = test: CCL2 ELISA of culture medium, THP1 monocytes; settings: 5 or 10 μM DT, 24 hours, vs DMSO, FIG. 14 (b)
Procedure: (§1) It has been reported that increased CCL2 expression enhances cancer cell metastasis via macrophage recruitment. The effect of DT on CCL2 expression in RAW264.7 macrophages, THP1 monocytes and prostate cancer cells (metastatic DU145 and hormone therapy resistant and metastatic PC3) was examined by treating the cells with DMSO (control), 5 or 10 μM DT for 24 hours.
(§2) The culture medium was collected and the concentration of CCL2 was measured using ELISA assay.

macrophages = test: Macrophage mobility after DT treatment; settings: macrophages treated with 5 or 10 μM DT vs DMSO
Procedure: An in vitro study to evaluate the effect of DT on macrophage and cancer cell migration was performed.
Macrophages were treated with a vehicle (DMSO), 5 or 10 μM DT. The mobility of the macrophages was not affected by DT. The macrophages were placed in an invasive assay, prepared accordingly to the steps in Example 10 using DT-treated prostate cancer cells (DU145 or PC3) incubated in 10% CD-FBS RPMI medium.

[2] = system: skp2, MMP2, MMP9 in DU145, PC3 and 22RV1 prostate cancer cells; test: skp2 and downstream gene mRNA expression, prostate cancer cells; settings: various concentrations of DT vs DMSO; PC3, DU145, 22RV1; FIG. 9 (h)-(l)
Procedure: (§3) It has been reported that skp2 plays an important role in the metastasis of cancer cells. An in vitro evaluation of the effect of DT on prostate cancer cell metastasis was performed, by measuring the mRNA expression of skp2 in the following prostate cancer cell lines: meatstatic DU145 cells (Panels i-j of FIG. 9), hormone therapy resistant and metastatic PC3 cells (Panel h of FIG. 9), and 22RV1 cells (Panels k-l of FIG. 9), A549 lung cancer cells (Panels (c)-(e) of FIG. 10), chemotherapy-resistant/metastatic H460 lung cancer cells (Panels (d) and (f) of FIG. 10), HCT116 colon cancer cells (Panels (g) and (i) of FIG. 10) and MCF7-tamoxifen resistant breast cancer cells (Panels (h) and (j) of FIG. 10) […].
(§4) The cancer cells were treated with DMSO and various concentrations of DT.

[3] = system: tamoxifen-resistant MCF-7 breast cancer cells; test: XTT proliferation assay, tamoxifen-resistant MCF-7; settings: 1-3 days, Panel (c) of FIG. 3
Procedure: The prostate cancer cells were plated at a density of 10^3 or 3×10^3 per well, in a 96-well plate, in a medium containing 10% Fetal bovine serum (FBS) (Gibco®, commercially available from Life Technologies, USA). Once the prostate cancer cells were attached to the culture dish, the 10% FBS medium was replaced with a second 10% FBS medium and each of the prostate cancer cell line was treated with 1, 5, and 10 μM of DT respectively for 1-2 days. The absorbance was measured using XTT assay kit (commercially available from Roche, Switzerland) at 492 nm using an ELISA reader (Bio-Rad Laboratories, USA).
An in vitro evaluation of the effect of DT on the breast cancer cells was performed. The breast cancer cell lines, MDA-MB-231, MCF-7 and tamoxifen-resistant MCF-7 breast cancer cells were obtained from Bioresource Collection and Research Center, Taiwan. The breast cancer cells were cultured in Eagle's Minimum Essential Medium containing 10% charcoal-stripped fetal bovine serum and plated according to the steps in Example 1 and each of the breast cancer cell line was treated with 0 (control), 5, 10 and 20 μM of DT, respectively for 1-3 days. The absorbance was measured using XTT assay kit at 492 nm using an ELISA reader.

[4] = system: skp2 and downstream genes in MCF7-tamoxifen resistant breast cancer cells; test: skp2 and downstream gene mRNA expression, tamoxifen resistant breast cancer cells; settings: various concentrations of DT vs DMSO, FIG. 10 (h), (j)
Procedure: as §3, §4

[5] = system: γ-H2AX, phosphorylated-ATM, phosphorylated-p53, PUMA, BAX, caspase-3, caspase-9 and PARP in LNCaP and DU145 prostate cancer cells; test: Western blot of cell damage and cell death proteins, prostate cancer cells; settings: various concentrations of DT, 6 to 24 hours, vs control vehicle; dose and time dependent; FIG. 9 (a)-(g)
Procedure: An in vitro evaluation on the damage effect of DT on cancer cells was performed, using prostate cancer cells (metastatic LNCaP and metastatic DU145, hormone therapy resistant and metastatic PC3 and 22RV1) and lung cancer cells (A549 and chemotherapy-resistant/metastatic H460).
Cancer cells were treated with a control vehicle, dihydrotestosterone (DHT), and various concentrations of DT between 6 to 24 hours. Cellular extracts of treated cancer cells were analyzed using Western Blot.

[6] = system: lung cancer cells (A549 and chemotherapy resistant/metastatic H460); test: Cell migration (wound-healing) assay, lung cancer cells; settings: DT vs control vehicle, 24 h, dose dependent; FIG. 11
Procedure: An in vitro evaluation of the effect of DT on lung cancer cells (A549 and chemotherapy resistant/metastatic H460), prostate cancer cells (metastatic DU145) and colorectal cancer cells (chemotherapy resistant HCT116) invasion and migration was performed, using cell invasion assay and cell migration assay.
Cell Migration Assay: In vitro wound-healing assay was used to assess cell motility in two dimensions. Cancer cells were plated overnight to achieve a subconfluent cell layer in 24-well plates. A scratch was made on the cell layer with a micropipette tip, and cultures were washed twice with serum-free medium to remove floating cells. Cancer cells were incubated in a culture medium containing DT or the control vehicle. Wound healing was visualized by comparing photographs taken at the time of adding the DT/control vehicle and 24 h later. Three experiments were done in quadruplicates.

[7] = system: CCL2 in metastatic DU145 prostate cancer cells; test: CCL2 ELISA of culture medium, DU145; settings: 5 or 10 μM DT, 24 hours, vs DMSO, FIG. 14 (c)
Procedure: as §1, §2

Cc1cccc2c3c(ccc12)C(=O)C1=C(OCC1C)C3=O (centres unmarked) [DT, dihydroisotanshinone I]
concentration of CCL2 [1]: significantly reduced
production of CCL2 in THP1 monocytes (CCL2 in THP1 monocytes): effectively inhibit the production of CCL2
mobility of the macrophages (macrophages): not affected
mRNA expression of skp2 and its downstream genes, prostate cancer [2]: effectively inhibit mRNA expression of skp2 and its downstream genes; also recorded: reduced skps and its downstream genes, MMP2 and MMP9
dose of DT required for inhibiting tamoxifen-resistant MCF-7 cells [3]: > 1 µM
mRNA expression of skp2 and its downstream genes, target therapy resistant breast cancer [4]: effectively inhibit mRNA expression of skp2 and its downstream genes; also recorded: reduces skps and its downstream genes, MMP2, MMP9 and E-cadherin
DNA damage response proteins (γ-H2AX and phosphorylated-ATM), prostate cancer cells [5]: increased
cell cycle regulatory protein (phosphorylated-p53), prostate cancer cells [5]: increased
cell program death proteins (PUMA, BAX, caspase-3, caspase-9 and PARP), prostate cancer cells [5]: increased
lung cancer cell migration into the wounded area [6]: reduced metastatic lung cancer cell migration; also recorded: reduced lung cancer cell migration into the wounded area
production of CCL2 in metastatic DU145 prostate cancer cells [7]: effectively inhibit the production of CCL2
